Measured values published in patent EP0212479A1, “Use of lactam amides as efficiency improvers in animals” (BAYER AG, priority 1985, dated 1987).

Experiment: Rat feeding trial (Ratten-Fütterungsversuch), growth promotion
Assay type: in vivo, Laborratten vom Typ SPF Wistar
Conditions: female rats 90-110 g, active substance in feed ad lib, Dosis 25 ppm, 13-day trial, weight gain relative to Kontrolle = 100
Text: Weibliche Laborratten 90-110 g schwer vom Typ SPF Wistar tZüchtung Hagemann) werden ad lib mit Standard Rattenfutter, das mit der gewünschten Menge Wirkstoff versetzt ist, gefüttert. Jeder Versuchsansatz wird mit Futter der identischen Charge durchgeführt, so daß Unterschiede in der Zusammensetzung des Futters die Vergleichbarkeit der Ergebnisse nicht beeinträchtigen können.
Die Ratten erhalten Wasser ad lib.
Jeweils 12 Ratten bilden eine Versuchsgruppe und werden mit Futter, das mit der gewünschten Menge Wirkstoff versetzt ist gefüttert. Eine Kontrollgruppe erhält Futter ohne Wirkstoff. Das durchschnittliche Körpergewicht sowie die Streuung in den Körpergewichten der Ratten ist in jeder Versuchsgruppe gleich, so daß eine Vergleichbarkeit der Versuchsgruppen untereinander gewährleistet ist.
Während des 13-tägigen Versuchs werden Gewichtszunahme und Futterverbrauch bestimmt.
Es werden die aus der Tabelle ersichtlichen Ergebnisse erhalten: […]

Structure (SMILES) | Zuwachs
FC(F)(F)c1ccccc1CNC1=NCCCCC1 [Beispiel 10] | 107
FC(F)(F)c1cccc(CNC2=NCCCCC2)c1 [Beispiel 13, 2-(3-Trifluormethyl-benzylamino)-tetrahydroazepin] | 112
FC(F)(F)c1ccc(CNC2=NCCCCC2)cc1 [Beispiel 3] | 107
CC(NC1=NCCCCC1)c1cccc(C(F)(F)F)c1 (stereo not drawn) [Beispiel 1] | 111
FC(F)(F)c1cccc(CNC2=NCCCCC2)c1 [14 (Maleinat)] | 117
CC(C)c1ccc(C(F)(F)F)cc1CNC1=NCCCCC1 [Beispiel 9] | 104
